# Reference: patent publication US9034859B2, “Sulfated oxysterol and oxysterol sulfation by hydroxysterol sulfotransferase promote lipid homeostasis and liver proliferation” (Virginia Commonwealth University, priority 2011, dated 2015)
# Legend:
# [1] = Serum parameters after acute treatment of HFD- or HCD-fed mice (NAFLD model); assay type: in vivo, C57BL/6J female mice; conditions: 25 mg/kg i.p. twice, fasted overnight, mean ± SD, n=15-17
# Protocol: (§1) Animal studies were approved by Institutional Animal Care and Use Committee of McGuire Veterans Affairs Medical Center and were conducted in accordance with the Declaration of Helsinki, the Guide for the Care and Use of Laboratory Animals, and all applicable regulations. To examine the effect of 25HC3S on diet-induced lipid accumulation in sera and liver, 8-week-old female C57BL/6J mice (Charles River, Wilmington, Mass.) were randomly assigned to three groups: the first control group was fed a chow diet; the high fat diet (HFD) group was fed a HFD (Harlan Teklad, Madison, Wis.) containing 42% kcal from fat, 43% kcal from carbohydrate, 15% kcal from protein and 0.2% cholesterol; and the high cholesterol diet (HCD) group was fed a 2% cholesterol diet with 18% kcal from fat, 58% kcal from carbohydrate and 24% kcal from protein for 10 weeks, respectively. All mice were housed under identical conditions in an aseptic facility and given free access to water and food. At the end of each period, the mice were intraperitoneally injected with vehicle solution (ethanol/PBS; Vehicle), 25HC (25 mg/kg), or 25HC3S (25 mg/kg) for 2 times and fasted over night for acute treatment (n=15-17 for each group) or once every three days for 6 weeks (n=16 for each group) and fasted 5 hrs for long-term treatment; and blood samples were collected. Serum triglyceride, total cholesterol, high density lipoprotein-cholesterol, glucose, alkaline phosphatase (ALK), alanine aminotransferase (ALT), and aspartate aminotransferase (AST) were measured using standard enzymatic techniques in the clinical laboratory at McGuire Veterans Affairs Medical Center. Lipoprotein profiles in sera were analyzed by HPLC as following described.
# [2] = HPLC analysis of 25HC3S and 25HC levels in liver tissues; assay type: in vivo, C57BL/6J female mice; conditions: HFD mice, acute treatment
# [3] = test system: lipogenic gene expression; test: Relative hepatic mRNA expression by real-time RT-PCR, acute treatment; assay type: in vivo, C57BL/6J female mice; conditions: liver; for ABCA1 relative hepatic mRNA / ABCG1 relative hepatic mRNA / ACC1 relative hepatic mRNA / ACOX1 relative hepatic mRNA / CD36 relative hepatic mRNA / CPT1 relative hepatic mRNA / CYP7α relative hepatic mRNA / CYP27α relative hepatic mRNA / FABP1 relative hepatic mRNA / FAS relative hepatic mRNA / FATP relative hepatic mRNA / G6Pase relative hepatic mRNA / GCK relative hepatic mRNA / GPAM relative hepatic mRNA / LDLR relative hepatic mRNA / LXRα relative hepatic mRNA / MCAD relative hepatic mRNA / MTTP relative hepatic mRNA / PCK1 relative hepatic mRNA / PLTP relative hepatic mRNA / PPARα relative hepatic mRNA / Pkir relative hepatic mRNA / SCD relative hepatic mRNA / SRB1 relative hepatic mRNA / SREBP-1c relative hepatic mRNA / SULT2B1b relative hepatic mRNA: acute treatment (twice), mean ± SD, n=5-6
# Protocol: as §1
# Total RNA was isolated with SV Total RNA Isolation Kit (Promega, Madison, Wis.), which included DNase treatment. Total RNA, 2 μg, was used for the first-strand cDNA synthesis as recommended by the manufacturer (Invitrogen, Carlsbad, Calif.). Real-time RT-PCR was performed using SYBR Green as indicator on ABI 7500 Fast Real-Time PCR System (Applied Biosystems, Foster City, Calif.). All primer/probe sets for real-time PCR were TaqMan gene expression assays (Applied Biosystems, Foster City, Calif.). Amplifications of β-actin and GAPDH were used as internal controls. Relative messenger RNA (mRNA) expression was quantified with the comparative cycle threshold (Ct) method and was expressed as 2^−ΔΔCt. Suitable primers were utilized.
# LXR signaling pathway = test: Western blot of LXR and its target genes and PCNA in mouse liver (Example 3); assay type: in vivo, C57BL/6 mice
# Protocol: Cayman Chemical, Ann Arbor, Mich.); […] […] Metabolism. (Accepted)]. […] Cell lysates were prepared from frozen mouse liver tissues. Total proteins, 100 μg, were separated by 10% SDS-PAGE, and transferred to PVDF membrane (Millipore, Eschbom, Germany). […] Louis, Mo.) was used as a loading control. The immunoreactive bands were detected by Fujifilm Medical System (Fujifilm, Stamford, Conn.) and quantified by Advanced Image Data Analyzer (Aida Inc., Straubenhardt, Germany).
# [4] = HPLC analysis of serum lipoprotein profiles; assay type: in vivo, C57BL/6J female mice; conditions: HFD mice, acute treatment
# Protocol: Animal studies were approved by Institutional Animal Care and Use Committee of McGuire Veterans Affairs Medical Center and were conducted in accordance with the Declaration of Helsinki, the Guide for the Care and Use of Laboratory Animals, and all applicable regulations. […] All mice were housed under identical conditions in an aseptic facility and given free access to water and food. At the end of each period, the mice were intraperitoneally injected with vehicle solution (ethanol/PBS; […] Serum triglyceride, total cholesterol, high density lipoprotein-cholesterol, glucose, alkaline phosphatase (ALK), alanine aminotransferase (ALT), and aspartate aminotransferase (AST) were measured using standard enzymatic techniques in the clinical laboratory at McGuire Veterans Affairs Medical Center. Lipoprotein profiles in sera were analyzed by HPLC as following described. […] Fractions were collected for 1.2 min each. The cholesterol assay was performed using 180 μl of each fraction plus 20 μl of a 10× solution of Wako Total Cholesterol E Reagent (Wako Chemicals USA, Richmond, Va.) in a 96 well plate, incubated at 37° C. and read at 595 nm.
# [5] = HFD mice, acute treatment, compared to vehicle
compound,measurement,setting,value
"CC(CCCC(C)(C)O)C1CCC2C3CC=C4CC(OS(=O)(=O)O)CCC4(C)C3CCC12C (centres unmarked) [25HC3S, 25-hydroxycholesterol-3-sulfate]",ALK,[1]; HCD 10 weeks,89 ± 19 IU/L
same,ALT,[1]; HCD 10 weeks,44 ± 5 IU/L
same,AST,[1]; HCD 10 weeks,227 ± 48 IU/L
same,Cholesterol,[1]; HCD 10 weeks,86 ± 7 mg/dL
same,Glucose,[1]; HCD 10 weeks,249 ± 39 mg/dL
same,HDL-C,[1]; HCD 10 weeks,77 ± 7 mg/dL
same,Triglycerides,[1]; HCD 10 weeks,43 ± 8 mg/dL
same,ALK,[1]; HFD 10 weeks,76 ± 21 IU/L
same,ALT,[1]; HFD 10 weeks,47 ± 6 IU/L
same,AST,[1]; HFD 10 weeks,222 ± 54 IU/L
same,Cholesterol,[1]; HFD 10 weeks,87 ± 24 mg/dL
same,Glucose,[1]; HFD 10 weeks,245 ± 50 mg/dL
same,HDL-C,[1]; HFD 10 weeks,72 ± 26 mg/dL
same,Triglycerides,[1]; HFD 10 weeks,34 ± 9 mg/dL
same,level of the administered compound in liver,[2],significantly increased
same,ABCA1 relative hepatic mRNA,[3]; HFD mice,0.71 ± 0.12
same,ABCG1 relative hepatic mRNA,[3]; HFD mice,1.14 ± 0.76
same,ACC1 relative hepatic mRNA,[3]; HFD mice,0.56 ± 0.12
same,ACOX1 relative hepatic mRNA,[3]; HFD mice,0.82 ± 0.16
same,CD36 relative hepatic mRNA,[3]; HFD mice,0.93 ± 0.36
same,CPT1 relative hepatic mRNA,[3]; HFD mice,1.05 ± 0.19
same,CYP7α relative hepatic mRNA,[3]; HFD mice,0.60 ± 0.18
same,CYP27α relative hepatic mRNA,[3]; HFD mice,1.06 ± 0.23
same,FABP1 relative hepatic mRNA,[3]; HFD mice,1.14 ± 0.45
same,FAS relative hepatic mRNA,[3]; HFD mice,0.33 ± 0.21
same,FATP relative hepatic mRNA,[3]; HFD mice,1.05 ± 0.29
same,G6Pase relative hepatic mRNA,[3]; HFD mice,1.36 ± 0.77
same,GCK relative hepatic mRNA,[3]; HFD mice,1.10 ± 0.68
same,GPAM relative hepatic mRNA,[3]; HFD mice,1.16 ± 0.08
same,LDLR relative hepatic mRNA,[3]; HFD mice,1.07 ± 0.09
same,LXRα relative hepatic mRNA,[3]; HFD mice,0.79 ± 0.10
same,MCAD relative hepatic mRNA,[3]; HFD mice,1.36 ± 0.31
same,MTTP relative hepatic mRNA,[3]; HFD mice,1.31 ± 0.20
same,PCK1 relative hepatic mRNA,[3]; HFD mice,1.02 ± 0.25
same,PLTP relative hepatic mRNA,[3]; HFD mice,0.97 ± 0.55
same,PPARα relative hepatic mRNA,[3]; HFD mice,0.93 ± 0.35
same,Pkir relative hepatic mRNA,[3]; HFD mice,0.61 ± 0.18
same,SCD relative hepatic mRNA,[3]; HFD mice,0.93 ± 0.27
same,SRB1 relative hepatic mRNA,[3]; HFD mice,1.30 ± 0.22
same,SREBP-1c relative hepatic mRNA,[3]; HFD mice,0.56 ± 0.13
same,SULT2B1b relative hepatic mRNA,[3]; HFD mice,1.29 ± 0.34
same,reduction of ACCT mRNA level,[3]; [5],45%
same,reduction of FAS mRNA level,[3]; [5],70%
same,reduction of LXRα mRNA level,[3]; [5],20%
same,reduction of SREBP-1c mRNA level,[3]; [5],45%
same,decrease of ABCA1 protein level,"LXR signaling pathway; 5 mg/kg, 48 h",50%
same,decrease of LXRα protein level,"LXR signaling pathway; 5 mg/kg, 48 h",40%
same,decrease of SREBP-1c protein level,"LXR signaling pathway; 5 mg/kg, 48 h",30%
same,increase of PCNA protein level,"LXR signaling pathway; 5 mg/kg, 48 h",2 fold
same,"LDL, VLDL, and HDL protein levels",[4],did not change
same,cholesterol contents in HDL fractions,[4],slightly decreased
same,triglyceride contents in VLDL fractions,[4],markedly decreased
"C[C@H](CCCC(C)(C)O)[C@H]1CC[C@H]2[C@@H]3CC=C4C[C@@H](O)CC[C@]4(C)[C@H]3CC[C@]12C [25HC, 25-hydroxycholesterol]",ALK,[1]; HFD 10 weeks,55 ± 12 IU/L
same,ALT,[1]; HFD 10 weeks,56 ± 14 IU/L
same,AST,[1]; HFD 10 weeks,294 ± 57 IU/L
same,Cholesterol,[1]; HFD 10 weeks,144 ± 24 mg/dL
same,Glucose,[1]; HFD 10 weeks,188 ± 26 mg/dL
same,HDL-C,[1]; HFD 10 weeks,119 ± 21 mg/dL
same,Triglycerides,[1]; HFD 10 weeks,49 ± 13 mg/dL
same,level of the administered compound in liver,[2],significantly increased
same,decrease of ACOX1 mRNA level,"[3]; HFD mice, acute treatment",55%
same,decrease of PPARα mRNA level,"[3]; HFD mice, acute treatment",40%
same,decrease of SCD mRNA level,"[3]; HFD mice, acute treatment",40%
same,increase of ACC1 mRNA level,"[3]; HFD mice, acute treatment",160%
same,increase of FAS mRNA level,"[3]; HFD mice, acute treatment",150%
same,increase of SREBP-1c mRNA level,"[3]; HFD mice, acute treatment",170%
same,increase of SULT2B1b expression,"[3]; HFD mice, acute treatment",3 fold
same,ABCA1 relative hepatic mRNA,[3]; HFD mice,1.08 ± 0.24
same,ABCG1 relative hepatic mRNA,[3]; HFD mice,1.38 ± 0.78
same,ACC1 relative hepatic mRNA,[3]; HFD mice,1.58 ± 0.64
same,ACOX1 relative hepatic mRNA,[3]; HFD mice,0.45 ± 0.17
same,CD36 relative hepatic mRNA,[3]; HFD mice,0.71 ± 0.24
same,CPT1 relative hepatic mRNA,[3]; HFD mice,0.94 ± 0.16
same,CYP7α relative hepatic mRNA,[3]; HFD mice,0.19 ± 0.18
same,CYP27α relative hepatic mRNA,[3]; HFD mice,1.00 ± 0.12
same,FABP1 relative hepatic mRNA,[3]; HFD mice,0.48 ± 0.15
same,FAS relative hepatic mRNA,[3]; HFD mice,1.45 ± 0.18
same,FATP relative hepatic mRNA,[3]; HFD mice,0.67 ± 0.12
same,G6Pase relative hepatic mRNA,[3]; HFD mice,0.25 ± 0.13
same,GCK relative hepatic mRNA,[3]; HFD mice,0.57 ± 0.16
same,GPAM relative hepatic mRNA,[3]; HFD mice,1.12 ± 0.27
same,LDLR relative hepatic mRNA,[3]; HFD mice,1.38 ± 0.50
same,LXRα relative hepatic mRNA,[3]; HFD mice,0.98 ± 0.09
same,MCAD relative hepatic mRNA,[3]; HFD mice,0.75 ± 0.12
same,MTTP relative hepatic mRNA,[3]; HFD mice,1.04 ± 0.14
same,PCK1 relative hepatic mRNA,[3]; HFD mice,1.47 ± 0.37
same,PLTP relative hepatic mRNA,[3]; HFD mice,0.81 ± 0.36
same,PPARα relative hepatic mRNA,[3]; HFD mice,0.59 ± 0.09
same,Pkir relative hepatic mRNA,[3]; HFD mice,0.77 ± 0.13
same,SCD relative hepatic mRNA,[3]; HFD mice,0.59 ± 0.13
same,SRB1 relative hepatic mRNA,[3]; HFD mice,1.52 ± 0.31
same,SREBP-1c relative hepatic mRNA,[3]; HFD mice,1.69 ± 0.75
same,SULT2B1b relative hepatic mRNA,[3]; HFD mice,3.33 ± 0.89
same,increase of IL1α expression,[3]; data not shown,217%
same,increase of NFκB expression,[3]; data not shown,168%
same,expression of ABCA1 and SREBP-1c,LXR signaling pathway; Ad-Control and 25HC co-treatment group,effectively up-regualted
same,cholesterol contents in LDL and HDL fractions,[4],significantly increased
same,triglyceride contents in LDL fractions,[4],significantly increased
